Assay results reported in ChEMBL document CHEMBL2434896, “Carbonic anhydrase inhibitors. Synthesis of heterocyclic 4-substituted pyridine-3-sulfonamide derivatives and their inhibition of the human cytosolic isozymes I and II and transmembrane tumor-associated isozymes IX and XII” (Eur J Med Chem, 2013).
Active and inactive are the calls of the source. The rule behind the calls is not given here.

Tests used:
[1] = system: PC-3; test: Growth inhibition of human PC3 cells at 10 uM after 48 hrs by sulforhodamine B assay; type: functional
[2] = system: NCI-H23; test: Growth inhibition of human NCI-H23 cells at 10 uM after 48 hrs by sulforhodamine B assay; type: functional
[3] = system: HT-29; test: Growth inhibition of human HT-29 cells at 10 uM after 48 hrs by sulforhodamine B assay; type: functional
[4] = system: OVCAR-3; test: Growth inhibition of human OVCAR3 cells at 10 uM after 48 hrs by sulforhodamine B assay; type: functional
[5] = system: HCC 2998; test: Growth inhibition of human HCC2998 cells at 10 uM after 48 hrs by sulforhodamine B assay; type: functional
[6] = system: NCI/ADR-RES; test: Growth inhibition of human NCI-ADR-RES cells at 10 uM after 48 hrs by sulforhodamine B assay; type: functional
[7] = system: BT-549; test: Growth inhibition of human BT549 cells at 10 uM after 48 hrs by sulforhodamine B assay; type: functional; conditions: BT-549, 48 h, read-out: GI
[8] = system: SN12C; test: Growth inhibition of human SN12C cells at 10 uM after 48 hrs by sulforhodamine B assay; type: functional
[9] = system: NCI-H460; test: Growth inhibition of human NCI-H460 cells at 10 uM after 48 hrs by sulforhodamine B assay; type: functional
[10] = system: RPMI-8226; test: Growth inhibition of human RPMI8226 cells at 10 uM after 48 hrs by sulforhodamine B assay; type: functional; conditions: RPMI-8226, 48 h, read-out: GI
[11] = system: Hs-578T; test: Growth inhibition of human Hs 578T cells at 10 uM after 48 hrs by sulforhodamine B assay; type: functional
[12] = system: RXF 393; test: Growth inhibition of human RXF393 cells at 10 uM after 48 hrs by sulforhodamine B assay; type: functional
[13] = system: LOX IMVI; test: Growth inhibition of human LOXIMVI cells at 10 uM after 48 hrs by sulforhodamine B assay; type: functional
[14] = system: SK-MEL-5; test: Growth inhibition of human SK-MEL-5 cells at 10 uM after 48 hrs by sulforhodamine B assay; type: functional
[15] = system: COLO 205; test: Growth inhibition of human COLO205 cells at 10 uM after 48 hrs by sulforhodamine B assay; type: functional
[16] = system: SNB-19; test: Growth inhibition of human SNB19 cells at 10 uM after 48 hrs by sulforhodamine B assay; type: functional
[17] = system: OVCAR-4; test: Growth inhibition of human OVCAR4 cells at 10 uM after 48 hrs by sulforhodamine B assay; type: functional
[18] = system: K562; test: Growth inhibition of human K562 cells at 10 uM after 48 hrs by sulforhodamine B assay; type: functional
[19] = system: SF-268; test: Growth inhibition of human SF268 cells at 10 uM after 48 hrs by sulforhodamine B assay; type: functional
[20] = system: T47D; test: Growth inhibition of human T47D cells at 10 uM after 48 hrs by sulforhodamine B assay; type: functional; conditions: read-out: GI
[21] = system: A498; test: Growth inhibition of human A498 cells at 10 uM after 48 hrs by sulforhodamine B assay; type: functional
[22] = system: OVCAR-5; test: Growth inhibition of human OVCAR5 cells at 10 uM after 48 hrs by sulforhodamine B assay; type: functional
[23] = system: NCI-H522; test: Growth inhibition of human NCI-H522 cells at 10 uM after 48 hrs by sulforhodamine B assay; type: functional; conditions: NCI-H522, 48 h, read-out: GI
[24] = system: MDA-MB-435; test: Growth inhibition of human MDA-MB-435 cells at 10 uM after 48 hrs by sulforhodamine B assay; type: functional
[25] = system: ACHN; test: Growth inhibition of human ACHN cells at 10 uM after 48 hrs by sulforhodamine B assay; type: functional
[26] = system: UO-31; test: Growth inhibition of human UO31 cells at 10 uM after 48 hrs by sulforhodamine B assay; type: functional; conditions: UO-31, 48 h, read-out: GI
[27] = system: SF-539; test: Growth inhibition of human SF539 cells at 10 uM after 48 hrs by sulforhodamine B assay; type: functional; conditions: SF-539, 48 h, read-out: GI
[28] = biological target: Carbonic anhydrase 9 (Homo sapiens, UniProt Q16790); test: Inhibition of human carbonic anhydrase 9 after 15 mins by stopped flow CO2 hydration assay
[29] = system: CAKI-1; test: Growth inhibition of human CAKI-1 cells at 10 uM after 48 hrs by sulforhodamine B assay; type: functional; conditions: CAKI-1, 48 h, read-out: GI
[30] = system: MCF7; test: Growth inhibition of human MCF7 cells at 10 uM after 48 hrs by sulforhodamine B assay; type: functional
[31] = system: HL-60(TB); test: Growth inhibition of human HL-60(TB) cells at 10 uM after 48 hrs by sulforhodamine B assay; type: functional; conditions: HL-60, 48 h, read-out: GI
[32] = system: SW-620; test: Growth inhibition of human SW620 cells at 10 uM after 48 hrs by sulforhodamine B assay; type: functional
[33] = system: SR; test: Growth inhibition of human SR cells at 10 uM after 48 hrs by sulforhodamine B assay; type: functional; conditions: read-out: GI
[34] = system: MOLT-4; test: Growth inhibition of human MOLT4 cells at 10 uM after 48 hrs by sulforhodamine B assay; type: functional; conditions: MOLT-4, 48 h, read-out: GI
[35] = system: MDA-MB-468; test: Growth inhibition of human MDA-MB-468 cells at 10 uM after 48 hrs by sulforhodamine B assay; type: functional
[36] = system: HCT-116; test: Growth inhibition of human HCT116 cells at 10 uM after 48 hrs by sulforhodamine B assay; type: functional; conditions: HCT-116, 48 h, read-out: GI
[37] = system: IGROV-1; test: Growth inhibition of human IGROV1 cells at 10 uM after 48 hrs by sulforhodamine B assay; type: functional
[38] = system: KM12; test: Growth inhibition of human KM12 cells at 10 uM after 48 hrs by sulforhodamine B assay; type: functional
[39] = system: MDA-MB-231; test: Growth inhibition of human MDA-MB-231 cells at 10 uM after 48 hrs by sulforhodamine B assay; type: functional
[40] = system: NCI-H226; test: Growth inhibition of human NCI-H226 cells at 10 uM after 48 hrs by sulforhodamine B assay; type: functional
[41] = system: SNB-75; test: Growth inhibition of human SNB75 cells at 10 uM after 48 hrs by sulforhodamine B assay; type: functional; conditions: SNB-75, 48 h, read-out: GI
[42] = Growth inhibition of human EKVX cells at 10 uM after 48 hrs by sulforhodamine B assay; type: functional; conditions: read-out: GI
[43] = system: TK-10; test: Growth inhibition of human TK10 cells at 10 uM after 48 hrs by sulforhodamine B assay; type: functional
[44] = system: DU-145; test: Growth inhibition of human DU145 cells at 10 uM after 48 hrs by sulforhodamine B assay; type: functional
[45] = system: Malme-3M; test: Growth inhibition of human MALME-3M cells at 10 uM after 48 hrs by sulforhodamine B assay; type: functional; conditions: read-out: GI
[46] = system: HOP-92; test: Growth inhibition of human HOP92 cells at 10 uM after 48 hrs by sulforhodamine B assay; type: functional
[47] = system: SK-OV-3; test: Growth inhibition of human SKOV3 cells at 10 uM after 48 hrs by sulforhodamine B assay; type: functional
[48] = system: SF-295; test: Growth inhibition of human SF295 cells at 10 uM after 48 hrs by sulforhodamine B assay; type: functional; conditions: SF-295, 48 h, read-out: GI
[49] = system: M14; test: Growth inhibition of human M14 cells at 10 uM after 48 hrs by sulforhodamine B assay; type: functional
[50] = system: SK-MEL-2; test: Growth inhibition of human SK-MEL-2 cells at 10 uM after 48 hrs by sulforhodamine B assay; type: functional
[51] = system: SK-MEL-28; test: Growth inhibition of human SK-MEL-28 cells at 10 uM after 48 hrs by sulforhodamine B assay; type: functional, cell-based
[52] = system: 786-0; test: Growth inhibition of human 786-0 cells at 10 uM after 48 hrs by sulforhodamine B assay; type: functional
[53] = system: UACC-62; test: Growth inhibition of human UACC62 cells at 10 uM after 48 hrs by sulforhodamine B assay; type: functional
[54] = system: NCI-H322M; test: Growth inhibition of human NCI-H322M cells at 10 uM after 48 hrs by sulforhodamine B assay; type: functional
[55] = system: CCRF-CEM; test: Growth inhibition of human CCRF-CEM cells at 10 uM after 48 hrs by sulforhodamine B assay; type: functional; conditions: read-out: GI
[56] = system: HCT-15; test: Growth inhibition of human HCT15 cells at 10 uM after 48 hrs by sulforhodamine B assay; type: functional
[57] = system: HOP-62; test: Growth inhibition of human HOP62 cells at 10 uM after 48 hrs by sulforhodamine B assay; type: functional

## NS(=O)(=O)c1cnccc1N1CCN(c2ccccc2)CC1
[1]
  growth inhibition (GI): inactive
[2]
  growth inhibition (GI): inactive
[3]
  growth inhibition (GI): inactive
[4]
  growth inhibition (GI): inactive
[5]
  growth inhibition (GI): inactive
[6]
  growth inhibition (GI): inactive
[7]
  inhibition of growth at 10 µM: 4%
[8]
  growth inhibition (GI): inactive
[9]
  growth inhibition (GI): inactive
[10]
  inhibition of growth at 10 µM: 10%
[11]
  growth inhibition (GI): inactive
[12]
  growth inhibition (GI): inactive
[13]
  growth inhibition (GI): inactive
[14]
  growth inhibition (GI): inactive
[15]
  growth inhibition (GI): inactive
[16]
  growth inhibition (GI): inactive
[17]
  growth inhibition (GI): inactive
[18]
  growth inhibition (GI): inactive
[19]
  growth inhibition (GI): inactive
[20]
  inhibition of growth at 10 µM: 1%
[21]
  growth inhibition (GI): inactive
[22]
  growth inhibition (GI): inactive
[23]
  inhibition of growth at 10 µM: 1%
[24]
  growth inhibition (GI): inactive
[25]
  growth inhibition (GI): inactive
[26]
  inhibition of growth at 10 µM: 14%
[27]
  inhibition of growth at 10 µM: 3%
[28]
  Ki: 124 nM
[29]
  inhibition of growth at 10 µM: 8%
[30]
  growth inhibition (GI): inactive
[31]
  inhibition of growth at 10 µM: 2%
[32]
  growth inhibition (GI): inactive
[33]
  inhibition of growth at 10 µM: 8%
[34]
  inhibition of growth at 10 µM: 5%
[35]
  growth inhibition (GI): inactive
[36]
  inhibition of growth at 10 µM: 1%
[37]
  growth inhibition (GI): inactive
[38]
  growth inhibition (GI): inactive
[39]
  growth inhibition (GI): inactive
[40]
  growth inhibition (GI): inactive
[41]
  inhibition of growth at 10 µM: 1%
[42]
  inhibition of growth at 10 µM: 4%
[43]
  growth inhibition (GI): inactive
[44]
  growth inhibition (GI): inactive
[45]
  inhibition of growth at 10 µM: 8%
[46]
  growth inhibition (GI): inactive
[47]
  growth inhibition (GI): inactive
[48]
  inhibition of growth at 10 µM: 4%
[49]
  growth inhibition (GI): inactive
[50]
  growth inhibition (GI): inactive
[51]
  growth inhibition (GI): inactive
[52]
  growth inhibition (GI): inactive
[53]
  growth inhibition (GI): inactive
[54]
  growth inhibition (GI): inactive
[55]
  inhibition of growth at 10 µM: 7%
[56]
  growth inhibition (GI): inactive
[57]
  growth inhibition (GI): inactive
